In paper doi:10.64898/2025.12.10.692519v1 (biorxiv, 2025):

Columns and labels:
[1] = test system: CMK; experiment: cells; set-up: species or system CHRF; settings: Homo sapiens, 72 h, read-out: AB8939 (IC50 nM)
[2] = biological target: ALDH1A1 (Homo sapiens, UniProt P00352); experiment: NADH fluorescence dehydrogenase assay; assay type: biochemical
[3] = test system: CCRF-CEM; experiment: cells; settings: Homo sapiens, CCRF-CEM, 144 h, read-out: AB8939
[4] = test system: HEP-2; experiment: cells; settings: Homo sapiens, HEp-2, 144 h, read-out: AB8939
[5] = test system: 786-O; experiment: cells; settings: Homo sapiens, 786-0, 144 h, read-out: AB8939
[6] = test system: HRT-18; experiment: cells; settings: Homo sapiens, HRT-18, 144 h, read-out: AB8939
[7] = test system: MOLM-14; experiment: cells; settings: Homo sapiens, MOLM-14, 144 h, read-out: AB8939
[8] = test system: Karpas-299; experiment: cells; settings: Homo sapiens, KARPAS-299, 144 h, read-out: AB8939
[9] = test system: U2OS; experiment: cells; settings: Homo sapiens, U2OS, 144 h, read-out: AB8939
[10] = test system: PC-3; experiment: cells; settings: Homo sapiens, PC-3, 144 h, read-out: AB8939
[11] = test system: HGC-27; experiment: cells; settings: Homo sapiens, HGC-27, 144 h, read-out: AB8939
[12] = test system: REC-1; experiment: cells; settings: Homo sapiens, Rec1, 144 h, read-out: AB8939
[13] = test system: NALM-6; experiment: cells; settings: Homo sapiens, NALM-6, 144 h, read-out: AB8939
[14] = test system: HUT-78; experiment: cells; settings: Homo sapiens, HuT78, 144 h, read-out: AB8939
[15] = test system: PLC-PRF5; experiment: cells; settings: Homo sapiens, PLC-PRF-5, 144 h, read-out: AB8939
[16] = test system: SK-N-MC; experiment: cells; settings: Homo sapiens, SK-N-MC, 144 h, read-out: AB8939
[17] = test system: MESSA; experiment: cells; set-up: species or system MES-SA/Mx2; settings: Homo sapiens, MES-SA, read-out: MES-SA
[18] = test system: CHRF; experiment: cells; set-up: species or system CMK; settings: 72 h, read-out: AB8939 (IC50 nM)

ALDH1A1, sequence (P00352 2-501): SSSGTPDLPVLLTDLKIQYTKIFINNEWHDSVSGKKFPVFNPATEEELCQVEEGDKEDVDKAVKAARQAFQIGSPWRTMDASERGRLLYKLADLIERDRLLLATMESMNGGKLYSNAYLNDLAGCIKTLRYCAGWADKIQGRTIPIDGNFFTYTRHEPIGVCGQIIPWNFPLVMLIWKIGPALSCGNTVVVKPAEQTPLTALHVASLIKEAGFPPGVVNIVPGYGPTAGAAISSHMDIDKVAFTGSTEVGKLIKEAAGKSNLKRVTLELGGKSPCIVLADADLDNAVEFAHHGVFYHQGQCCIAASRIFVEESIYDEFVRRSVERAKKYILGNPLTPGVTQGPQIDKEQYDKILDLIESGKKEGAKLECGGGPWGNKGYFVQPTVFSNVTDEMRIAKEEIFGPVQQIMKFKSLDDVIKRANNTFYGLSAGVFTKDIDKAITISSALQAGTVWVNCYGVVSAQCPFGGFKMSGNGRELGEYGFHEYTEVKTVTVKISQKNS

CCOCc1ccc(C)c(Nc2ncc(-c3ccc(N4CCNC4=O)cc3)o2)c1 [AB8939]
IC50 [1]: 5.68 nM | IC50 [2]: 610 nM | IC50 [3]: 1 nM | IC50 [4]: 1 nM | IC50 [5]: 87 nM | IC50 [6]: 1 nM | IC50 [7]: 14 nM | IC50 [8]: 1 nM | IC50 [9]: 1 nM | IC50 [10]: 8 nM | IC50 [11]: 1 nM | IC50 [12]: 4 nM | IC50 [13]: 1 nM | IC50 [14]: 4 nM | IC50 [15]: 2 nM | IC50 [16]: 1 nM | IC50 [17]: 5.7 ± 5 nM | IC50 [18]: 9.7 nM
